This note sets out measurements from ChEMBL document CHEMBL1909046, “DrugMatrix in vitro pharmacology data”.

Experiment [1] can be described thus: DRUGMATRIX: Calcium Channel Type L, Phenylalkylamine radioligand binding (ligand: [3H] (-)-Desmethoxyverapamil (D-888)). The conditions noted are these: Not Active = under 50% inhibition at 10 µM. In kind it is cell membranes, Rattus norvegicus, Wistar, Brain, Membrane.
In experiment [2] the target is Cannabinoid receptor 1 (Homo sapiens, UniProt P21554). In kind it is cell membranes, Membrane. The conditions noted are these: chem-1. Further: in other assays of this panel Not Active means under 50% inhibition at 10 µM.
Chain of Cannabinoid receptor 1 (P21554 whole entry): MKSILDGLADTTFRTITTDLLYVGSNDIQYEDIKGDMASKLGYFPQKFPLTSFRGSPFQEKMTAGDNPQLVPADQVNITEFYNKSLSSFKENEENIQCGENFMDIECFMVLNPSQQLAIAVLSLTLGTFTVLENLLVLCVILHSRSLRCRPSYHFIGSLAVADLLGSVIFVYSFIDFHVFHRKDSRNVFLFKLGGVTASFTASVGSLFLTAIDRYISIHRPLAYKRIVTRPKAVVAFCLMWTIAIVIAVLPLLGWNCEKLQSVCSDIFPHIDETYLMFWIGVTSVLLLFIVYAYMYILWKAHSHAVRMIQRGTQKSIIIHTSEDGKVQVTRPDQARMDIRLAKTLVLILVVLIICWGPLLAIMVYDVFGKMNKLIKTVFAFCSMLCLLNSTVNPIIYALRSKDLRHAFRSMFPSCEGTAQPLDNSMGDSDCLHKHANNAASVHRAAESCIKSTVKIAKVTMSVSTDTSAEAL
Experiment [3] has as its target T1, Cysteinyl leukotriene receptor 1 (Homo sapiens, UniProt Q9Y271). Further: in other assays of this panel Not Active means under 50% inhibition at 10 µM.
T1 sequence (Q9Y271 whole entry): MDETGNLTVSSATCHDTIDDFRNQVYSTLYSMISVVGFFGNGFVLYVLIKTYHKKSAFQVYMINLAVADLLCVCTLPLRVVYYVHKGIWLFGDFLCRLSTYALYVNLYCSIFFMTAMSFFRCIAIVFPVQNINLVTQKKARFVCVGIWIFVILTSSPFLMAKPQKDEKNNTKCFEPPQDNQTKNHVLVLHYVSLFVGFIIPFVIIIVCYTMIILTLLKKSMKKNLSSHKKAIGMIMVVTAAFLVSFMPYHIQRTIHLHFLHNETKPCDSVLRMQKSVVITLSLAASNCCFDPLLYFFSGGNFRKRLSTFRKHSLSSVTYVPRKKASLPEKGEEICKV
In kind it is cell membranes, Membrane. The conditions noted are these: cho-k1.

The target of experiment [4] is Melanocortin receptor 4 (Homo sapiens, UniProt P32245). In kind it is cell membranes, Membrane. The conditions noted are these: hek293. Further: in other assays of this panel Not Active means under 50% inhibition at 10 µM.
Chain of Melanocortin receptor 4 (P32245 whole entry): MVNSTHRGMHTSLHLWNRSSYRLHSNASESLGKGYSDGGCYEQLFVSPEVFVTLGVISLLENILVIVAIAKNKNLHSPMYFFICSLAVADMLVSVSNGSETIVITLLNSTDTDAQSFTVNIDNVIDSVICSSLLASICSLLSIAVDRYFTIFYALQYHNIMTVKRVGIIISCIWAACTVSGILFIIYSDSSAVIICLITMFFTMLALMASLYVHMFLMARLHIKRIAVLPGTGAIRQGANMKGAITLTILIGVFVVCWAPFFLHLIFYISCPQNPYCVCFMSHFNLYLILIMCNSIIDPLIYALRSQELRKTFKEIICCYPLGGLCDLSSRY
Experiment [5] concerns the target T2, Caspase-1 (Homo sapiens, UniProt P29466).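 Further: Caspase-1 enzyme inhibition assay with a peptide substrate; in other assays of this panel Not Active means under 50% inhibition at 10 µM.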
T2 sequence (P29466 whole entry): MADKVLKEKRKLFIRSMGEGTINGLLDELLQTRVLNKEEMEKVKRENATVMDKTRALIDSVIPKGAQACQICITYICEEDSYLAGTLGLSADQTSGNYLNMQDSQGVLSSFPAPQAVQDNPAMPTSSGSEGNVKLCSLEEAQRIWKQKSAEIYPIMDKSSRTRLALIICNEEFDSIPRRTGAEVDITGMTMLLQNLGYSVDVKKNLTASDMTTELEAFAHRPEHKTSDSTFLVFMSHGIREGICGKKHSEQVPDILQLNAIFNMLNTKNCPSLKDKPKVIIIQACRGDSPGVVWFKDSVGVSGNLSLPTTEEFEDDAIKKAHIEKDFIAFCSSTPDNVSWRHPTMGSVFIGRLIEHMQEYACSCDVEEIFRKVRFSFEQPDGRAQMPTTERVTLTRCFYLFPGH
Also noted: species or system Escherichia coli.

The target in experiment [6] is T3, Adenosine receptor A3 (Homo sapiens, UniProt P0DMS8).
T3 sequence (P0DMS8 whole entry): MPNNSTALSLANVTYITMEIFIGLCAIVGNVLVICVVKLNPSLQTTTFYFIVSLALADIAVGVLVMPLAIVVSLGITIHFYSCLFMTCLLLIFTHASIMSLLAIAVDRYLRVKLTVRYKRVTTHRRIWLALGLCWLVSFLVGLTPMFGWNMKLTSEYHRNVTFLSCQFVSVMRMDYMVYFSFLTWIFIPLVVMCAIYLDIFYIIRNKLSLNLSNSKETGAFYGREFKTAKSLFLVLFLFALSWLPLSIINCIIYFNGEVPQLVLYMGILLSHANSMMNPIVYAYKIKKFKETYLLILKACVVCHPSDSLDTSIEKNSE
It is filed as cell membranes, CHO-K1, Membrane. The conditions noted are these: for Ki: read-out: Ki.

In experiment [7] the target is Tyrosine-protein kinase Lck (Homo sapiens, UniProt P06239). Briefly: DRUGMATRIX: Protein Tyrosine Kinase, LCK enzyme inhibition (substrate: Poly(Glu:Tyr)). In kind it is cell-based, Insect cells. The conditions noted are these: insect cells; Not Active = under 50% inhibition at 10 µM.
Chain of Tyrosine-protein kinase Lck (P06239 whole entry): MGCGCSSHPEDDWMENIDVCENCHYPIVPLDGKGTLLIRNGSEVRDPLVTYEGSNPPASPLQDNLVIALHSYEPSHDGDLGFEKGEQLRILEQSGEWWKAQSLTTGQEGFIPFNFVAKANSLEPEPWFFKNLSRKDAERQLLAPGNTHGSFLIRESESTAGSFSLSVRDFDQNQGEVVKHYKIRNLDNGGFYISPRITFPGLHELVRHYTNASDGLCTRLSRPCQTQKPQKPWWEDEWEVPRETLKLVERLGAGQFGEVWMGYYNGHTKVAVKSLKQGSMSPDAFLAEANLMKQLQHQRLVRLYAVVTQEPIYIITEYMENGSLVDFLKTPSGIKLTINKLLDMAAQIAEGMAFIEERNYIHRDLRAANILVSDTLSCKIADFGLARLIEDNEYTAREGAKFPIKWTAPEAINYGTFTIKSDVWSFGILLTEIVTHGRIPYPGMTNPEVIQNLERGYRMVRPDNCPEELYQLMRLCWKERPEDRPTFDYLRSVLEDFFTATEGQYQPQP

As for `COc1cc(N)nc2[nH]c(-c3ccc(F)cc3)c(-c3ccncc3)c12`, the 50% inhibitory concentration (IC50) entry in experiment [1], in experiment [2], in experiment [3], in experiment [4], in experiment [5] and in experiment [6] (cho-k1) was “Not Active” throughout. Further, in experiment [1], the Ki entry is recorded as “Not Active”.

With `CNS(=O)(=O)Cc1ccc2[nH]cc(CCN(C)C)c2c1`, the IC50 entry in experiment [1], in experiment [2], in experiment [3], in experiment [4], in experiment [5] and in experiment [7] was “Not Active” throughout. Further, the IC50 entry in experiment [6] (cho-k1) is “Not Active”. The inhibitory constant (Ki) result in experiment [1] was “Not Active”.

Consider `CCCc1nn(C)c2c(=O)[nH]c(-c3cc(S(=O)(=O)N4CCN(C)CC4)ccc3OCC)nc12`, for which the IC50 entry in experiment [1], in experiment [2], in experiment [3], in experiment [4], in experiment [5] and in experiment [7] was “Not Active” in each case. Besides, the concentration for half-maximal inhibition (IC50) result in experiment [6] (cho-k1) is reported as “Not Active”. The Ki result in experiment [1] is “Not Active”.

With `COc1ccc(/C=C/C(=O)Nc2ccccc2C(=O)O)cc1OC`, the IC50 result in experiment [1], in experiment [2], in experiment [3], in experiment [4], in experiment [5] and in experiment [7] was “Not Active” in each case. In experiment [6] (cho-k1), the half-inhibitory concentration (IC50) result is listed as “Not Active”. The inhibitory constant (Ki) result in experiment [1] is on record as “Not Active”.

On to `CCOC(N)=O`, for which the IC50 result in experiment [1], in experiment [2], in experiment [3], in experiment [4], in experiment [5] and in experiment [7] was “Not Active” each time. The IC50 result in experiment [6] (cho-k1) is reported as “Not Active”. Further, the inhibition constant Ki result in experiment [1] is recorded as “Not Active”.

Regarding `CC(=O)Nc1nnc(S(N)(=O)=O)s1` [ACETAZOLAMIDE], the 50% inhibitory concentration (IC50) entry in experiment [2], in experiment [3], in experiment [4], in experiment [5], in experiment [7] and in experiment [6] (cho-k1) was “Not Active” each time.

Take `O=c1[nH]c2ccccc2n1CCCN1CCC(n2c(=O)[nH]c3cc(Cl)ccc32)CC1` [DOMPERIDONE]: the half-maximal inhibitory concentration (IC50) result in experiment [2], in experiment [3], in experiment [4], in experiment [5], in experiment [7] and in experiment [6] (cho-k1) was “Not Active” each time.

Regarding `CC1=C(CC(=O)O)c2cc(F)ccc2/C1=C\c1ccc(S(C)(=O)=O)cc1` [EXISULIND], the half-inhibitory concentration (IC50) entry in experiment [1], in experiment [2], in experiment [3], in experiment [4], in experiment [5] and in experiment [7] was “Not Active” throughout. Further, the IC50 entry in experiment [6] (cho-k1) was “Not Active”. In experiment [1], the Ki entry is given as “Not Active”.

In the case of `CC(C)OC(=O)C(C)(C)Oc1ccc(C(=O)c2ccc(Cl)cc2)cc1` [FENOFIBRATE], the half-maximal inhibitory concentration (IC50) entry in experiment [2] is “Not Active”; in experiment [3] it was “Not Active”; in experiment [4], “Not Active”; in experiment [5] it was “Not Active”; in experiment [7], “Not Active”; in experiment [6] (read-out: IC50) it was 5.7 µM. Moreover, in experiment [6], the inhibitory constant (Ki) was 3.22 µM.

Regarding `OCCN1CCN(CCCN2c3ccccc3Sc3ccc(C(F)(F)F)cc32)CC1` [FLUPHENAZINE], the IC50 result is “Not Active” in experiment [2]; “Not Active” in experiment [3]; “Not Active” in experiment [4]; “Not Active” in experiment [5]; “Not Active” in experiment [7]; 11.9 µM in experiment [6] (read-out: IC50). For the same compound, the Ki in experiment [6] came to 6.75 µM.

With `CN1C2CCCC1CC(NC(=O)c1nn(C)c3ccccc13)C2` (stereo not drawn) [GRANISETRON], the concentration for half-maximal inhibition (IC50) entry in experiment [2], in experiment [3], in experiment [4], in experiment [5], in experiment [7] and in experiment [6] (cho-k1) was “Not Active” throughout.

In the case of `Nc1nc2c(c(=O)[nH]1)N(C=O)C(CNc1ccc(C(=O)N[C@@H](CCC(=O)O)C(=O)O)cc1)CN2` (stereo partly drawn) [LEUCOVORIN], the concentration for half-maximal inhibition (IC50) entry in experiment [1], in experiment [2], in experiment [3], in experiment [4], in experiment [5] and in experiment [7] was “Not Active” throughout. Moreover, the concentration for half-maximal inhibition (IC50) result in experiment [6] (cho-k1) is recorded as “Not Active”. In addition, in experiment [1], the inhibition constant Ki entry was “Not Active”.

For the compound `C[C@@H](O)[C@H]1C(=O)N2C(C(=O)O)=C(S[C@@H]3CN[C@H](C(=O)N(C)C)C3)[C@H](C)[C@H]12` [MEROPENEM], the IC50 entry in experiment [1], in experiment [2], in experiment [3], in experiment [4], in experiment [5] and in experiment [7] was “Not Active” in each case. The concentration for half-maximal inhibition (IC50) result in experiment [6] (cho-k1) is reported as “Not Active”. Besides, the Ki result in experiment [1] was “Not Active”.

For the compound `CC[C@@H](CO)NC(=O)[C@@H]1C=C2c3cccc4c3c(cn4C)C[C@H]2N(C)C1` [METHYSERGIDE], the 50% inhibitory concentration (IC50) result in experiment [2], in experiment [3], in experiment [4], in experiment [5], in experiment [7] and in experiment [6] (cho-k1) was “Not Active” in each case.

For `CCN(CC)CC#CCOC(=O)C(O)(c1ccccc1)C1CCCCC1` (stereo not drawn) [OXYBUTYNIN], the IC50 result in experiment [2], in experiment [3], in experiment [4], in experiment [5], in experiment [7] and in experiment [6] (cho-k1) was “Not Active” each time.

Turning to `O=P(O)(O)C(O)(Cc1cccnc1)P(=O)(O)O` [RISEDRONIC ACID], the IC50 result in experiment [1], in experiment [2], in experiment [3], in experiment [4], in experiment [5] and in experiment [7] was “Not Active” in each case. Also, in experiment [6] (cho-k1), the half-maximal inhibitory concentration (IC50) entry was “Not Active”. In addition, the Ki result in experiment [1] was “Not Active”.

As for `CN(CCOc1ccc(CC2SC(=O)NC2=O)cc1)c1ccccn1` (stereo not drawn) [ROSIGLITAZONE], the half-inhibitory concentration (IC50) entry in experiment [1], in experiment [2], in experiment [3], in experiment [4], in experiment [5] and in experiment [7] was “Not Active” throughout. Besides, the IC50 result in experiment [6] (cho-k1) is “Not Active”. In addition, the inhibitory constant (Ki) result in experiment [1] is given as “Not Active”.

In the case of `C=C(C)[C@H]1Cc2c(ccc3c2O[C@@H]2COc4cc(OC)c(OC)cc4[C@@H]2C3=O)O1` [ROTENONE], the concentration for half-maximal inhibition (IC50) result in experiment [1], in experiment [2], in experiment [3], in experiment [4], in experiment [5] and in experiment [7] was “Not Active” each time. The half-inhibitory concentration (IC50) result in experiment [6] (cho-k1) is listed as “Not Active”. Also, in experiment [1], the Ki result is given as “Not Active”.

`C#CCN(C)[C@H](C)Cc1ccccc1` [SELEGILINE]: the IC50 result in experiment [1], in experiment [2], in experiment [3], in experiment [4], in experiment [5] and in experiment [7] was “Not Active” in each case. Also, the IC50 entry in experiment [6] (cho-k1) is recorded as “Not Active”. Further, the inhibitory constant (Ki) result in experiment [1] is reported as “Not Active”.

With `O=c1n(CCCN2CCN(c3cccc(Cl)c3)CC2)nc2ccccn12` [TRAZODONE], the IC50 result in experiment [2], in experiment [3], in experiment [4], in experiment [5], in experiment [7] and in experiment [6] (cho-k1) was “Not Active” in each case.

As for `COc1cc(C(=O)NS(=O)(=O)c2ccccc2C)ccc1Cc1cn(C)c2ccc(NC(=O)OC3CCCC3)cc12` [ZAFIRLUKAST], the IC50 entry in experiment [1] was “Not Active”; in experiment [2], “Not Active”; in experiment [4], “Not Active”; in experiment [5], “Not Active”; in experiment [7] it was “Not Active”; in experiment [6] (read-out: IC50) it was 1.36 µM. Also, the Ki entry was “Not Active” in experiment [1] and 0.77 µM in experiment [6].

As a reminder, the IC50 is the midpoint of a concentration-inhibition curve. As usually defined, the Ki is a measure of affinity in units of concentration, obtained from inhibition or displacement.
